# Source: US7547710B2, “Fused heterocyclic compounds as peptidase inhibitors” (Takeda Pharmaceutical Company Limited, priority 2002, dated 2009)
# Target: T1, Caco-2-derived dipeptidyl peptidase IV (Homo sapiens, UniProt P27487)
# T1 construct: A dipeptidyl peptidase IV crude enzyme solution was prepared from cultured Caco-2 (ATCC HTB-37) cells; endogenous in cells; host or cells: Caco-2 (ATCC HTB-37); Triton X-100 extract, Sephadex G-200 fractions
# Experiment: Determination of Caco-2-derived dipeptidyl peptidase IV inhibitory activity
# Type: biochemical
# Settings: Caco-2 crude enzyme solution, substrate Gly-Pro-p-NA, 37° C., absorbance 405 nm after 0 hr. and 3 hrs.
# Procedure: The enzyme activity of dipeptidyl peptidase IV present in human colonic adenocarcinoma-derived cell line Caco-2 cell membrane has been already reported by Yong S. Chung et al. (Cancer Research, vol. 45, pp. 2976-2982, 1985).
# A dipeptidyl peptidase IV crude enzyme solution was prepared from cultured Caco-2 (ATCC HTB-37) cells. The Caco-2 cells were cultured in D-MEM medium (manufactured by Nissui Pharmaceutical Co., Ltd.) containing 10% FBS (fetal bovine serum (manufactured by GIBCO)). […]
# An N,N-dimethylformamide solution (5 μl) containing the test compound was added to a mixture of water (25 μl), 1M Tris-hydrochloride buffer (10 μl, pH 7.5) and 1 mM aqueous glycylprolyl-p-nitroanilide (Gly-Pro-p-NA; manufactured by Backem AG) solution (50 μl) to prepare a mixed solution. […] The absorbance after 0 hr. and 3 hrs. was measured using a microplate reader (Multiskan Bichromatic; manufactured by Labsystems) at a wavelength of 405 nm and an increase (ΔODs) was determined. At the same time, an increase (ΔODc) in absorbance of the reaction mixture without the test compound, and an increase (ΔODb) in absorbance of the reaction mixture without the test compound and the enzyme were determined and percent inhibition of dipeptidyl peptidase IV enzyme activity was calculated from the following formula: {1−[(ΔODs−ΔODb)/(ΔODc−ΔODb)]}×100 […]
# T1 sequence (P27487 whole entry): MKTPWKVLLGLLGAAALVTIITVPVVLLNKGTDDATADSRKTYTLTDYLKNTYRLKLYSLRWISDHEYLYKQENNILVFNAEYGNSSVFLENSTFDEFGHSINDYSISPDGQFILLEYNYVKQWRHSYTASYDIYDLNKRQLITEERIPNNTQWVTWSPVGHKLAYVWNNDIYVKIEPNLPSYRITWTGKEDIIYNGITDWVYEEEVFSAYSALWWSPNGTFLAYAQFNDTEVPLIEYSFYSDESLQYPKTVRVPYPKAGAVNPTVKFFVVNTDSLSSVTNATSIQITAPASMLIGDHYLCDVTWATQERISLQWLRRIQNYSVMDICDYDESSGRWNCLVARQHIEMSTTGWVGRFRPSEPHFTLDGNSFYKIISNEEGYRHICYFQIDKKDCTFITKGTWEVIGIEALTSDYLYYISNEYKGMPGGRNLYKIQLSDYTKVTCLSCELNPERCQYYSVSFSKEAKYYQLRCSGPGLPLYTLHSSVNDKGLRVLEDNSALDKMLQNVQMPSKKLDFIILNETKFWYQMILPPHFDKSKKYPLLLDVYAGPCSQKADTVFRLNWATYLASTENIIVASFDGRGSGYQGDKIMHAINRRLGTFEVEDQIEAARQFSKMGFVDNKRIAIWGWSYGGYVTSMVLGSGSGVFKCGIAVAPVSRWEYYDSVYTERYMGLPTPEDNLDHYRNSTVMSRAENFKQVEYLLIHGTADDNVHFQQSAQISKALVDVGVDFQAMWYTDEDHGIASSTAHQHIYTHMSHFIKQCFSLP
row,Compound,IC50 [nM]
1,"CC(C)Cc1nc2ccc(Cl)cc2c(-c2ccccc2)c1CN [Example 1, (6-chloro-2-isobutyl-4-phenylquinolin-3-yl)methylamine]",710

# Target: T2, dipeptidyl peptidase IV in rat plasma (Rattus norvegicus, UniProt P14740)
# T2 construct: from tissue; host or cells: SD rat blood plasma
# Experiment: Determination of dipeptidyl peptidase IV inhibitory activity in rat plasma
# Type: biochemical
# Settings: SD rat plasma, substrate Gly-Pro-p-NA, 30° C., absorbance 405 nm after 0 hr. and 1 hr.
# Procedure: The reaction was carried out according to the method of Raymond et al. (Diabetes, vol. 47, pp. 1253-1258, 1998) using a 96 well flat-bottomed plate at 30° C. An N,N-dimethylformamide solution (1 μl) containing the test compound was added to a mixture of water (69 μl), 1 M Tris-hydrochloride buffer (10 μl, pH 7.5) and 1 mM aqueous Gly-Pro-p-NA solution (100 μl) to prepare a mixed solution. Plasma (20 μl) prepared from blood of SD rat by a conventional method was added to the above-mentioned mixed solution and the enzyme reaction was started at 30° C. The absorbance after 0 hr. and 1 hr. was measured using a microplate reader at a wavelength of 405 nm and an increase (ΔODs) was determined. At the same time, an increase (ΔODc) in absorbance of the reaction mixture without the test compound, and an increase (ΔODb) in absorbance of the reaction mixture without the test compound and the enzyme were determined and percent inhibition of dipeptidyl peptidase IV enzyme activity was calculated from the following formula: {1−[(ΔODs−ΔODb)/(ΔODc−ΔODb)]}×100
# The dipeptidyl peptidase IV inhibitory activity of the test compound group is expressed in IC50 value (μM) and shown in Table 2.
# T2 sequence (P14740 37-767 limits assumed): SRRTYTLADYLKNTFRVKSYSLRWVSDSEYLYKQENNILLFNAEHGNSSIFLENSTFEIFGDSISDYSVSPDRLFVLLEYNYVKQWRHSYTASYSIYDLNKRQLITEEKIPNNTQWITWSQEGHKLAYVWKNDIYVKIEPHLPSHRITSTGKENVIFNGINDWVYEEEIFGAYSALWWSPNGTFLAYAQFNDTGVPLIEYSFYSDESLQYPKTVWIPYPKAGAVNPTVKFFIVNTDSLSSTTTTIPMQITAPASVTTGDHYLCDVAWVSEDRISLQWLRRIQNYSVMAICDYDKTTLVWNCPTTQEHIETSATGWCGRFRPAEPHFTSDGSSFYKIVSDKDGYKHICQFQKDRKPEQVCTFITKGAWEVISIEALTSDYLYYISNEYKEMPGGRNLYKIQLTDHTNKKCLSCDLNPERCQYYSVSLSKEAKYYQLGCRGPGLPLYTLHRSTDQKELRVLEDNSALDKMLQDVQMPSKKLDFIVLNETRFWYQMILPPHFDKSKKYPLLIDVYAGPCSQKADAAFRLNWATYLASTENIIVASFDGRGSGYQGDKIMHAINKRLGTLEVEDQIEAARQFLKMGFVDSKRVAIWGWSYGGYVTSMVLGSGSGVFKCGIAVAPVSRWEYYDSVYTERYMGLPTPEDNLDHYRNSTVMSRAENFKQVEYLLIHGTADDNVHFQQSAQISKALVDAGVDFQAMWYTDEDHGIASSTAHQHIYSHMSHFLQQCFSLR
row,Compound,IC50 [nM]
1,"CC(C)Cc1nc2ccc(Cl)cc2c(-c2ccccc2)c1CN [Example 1, (6-chloro-2-isobutyl-4-phenylquinolin-3-yl)methylamine]",1600

# Tested on: not given
# Experiment: not given
# Settings: not given
row,Compound,melting point [°C]
1,"CC(C)Cc1nc2ccc(Cl)cc2c(-c2ccccc2)c1CN [Example 1, (6-chloro-2-isobutyl-4-phenylquinolin-3-yl)methylamine]",114 to 116
2,"CC(C)Cc1nc2ccc(Br)cc2c(-c2ccccc2)c1CN [Example 2, (6-bromo-2-isobutyl-4-phenylquinolin-3-yl)methylamine]",129 to 130
3,"CC(C)Cc1nc2ccc(C#N)cc2c(-c2ccccc2)c1CN [Example 3, 3-(aminomethyl)-2-isobutyl-4-phenylquinoline-6-carbonitrile]",128 to 130
4,"COc1ccc2nc(CC(C)C)c(CN)c(-c3ccccc3)c2c1 [Example 25, (2-isobutyl-6-methoxy-4-phenylquinolin-3-yl)methylamine]",73 to 76
5,"COC(=O)c1ccc2nc(CC(C)C)c(CN)c(-c3ccccc3F)c2c1 [Example 29, Methyl 3-(aminomethyl)-4-(2-fluorophenyl)-2-isobutylquinoline-6-carboxylate]",138 to 139
6,"Cc1ccc(-c2c(CN)c(CC(C)C)nc3ccc(OCc4ccccc4)cc23)cc1 [Example 30, [6-(benzyloxy)-2-isobutyl-4-(4-methylphenyl)quinolin-3-yl]methylamine]",119 to 120
7,"CC(C)Cc1nc2ccc(OCC(N)=O)cc2c(-c2cccs2)c1CN [Example 33, 2-{[3-(aminomethyl)-2-isobutyl-4-thien-2-ylquinolin-6-yl]oxy}acetamide]",156 to 157
8,"CC(C)Cc1nc2ccc(OCC(N)=O)cc2c(-c2cccc(F)c2)c1CN [Example 38, 2-{[3-(aminomethyl)-4-(3-fluorophenyl)-2-isobutylquinolin-6-yl]oxy}acetamide]",106 to 109
9,"CC(C)(C)Cc1nc2ccc(OCC(N)=O)cc2c(-c2ccccc2)c1CN [Example 40, 2-{[3-(aminomethyl)-2-(2,2-dimethylpropyl)-4-phenylquinolin-6-yl]oxy}acetamide]",152 to 154
10,"NCc1c(CC2CCCC2)nc2ccc(OCC(N)=O)cc2c1-c1ccccc1 [Example 42, 2-{[3-(aminomethyl)-2-(cyclopentylmethyl)-4-phenylquinolin-6-yl]oxy}acetamide]",159 to 160
